Drawing on the supplement of paper PMC10307832, this text covers relative viability for one cell line.

Experiment in all cases: relative viability (nuclei count vs DMSO), 5 days (fraction); higher = more cells survive
Compound in assay [1]: C1CC(C2=C(C1)C3=C(N2)C=CC(=C3)Cl)C(=O)N [Selisistat] + C[C@]1(O)C[C@@H](c2nc(-c3ccc4ccc(-c5ccccc5)nc4c3)c3c(N)nccn32)C1 [Linsitinib] (partner 1 µM)
Summed up: (§1)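 Nuclei were stained with Hoechst during a one-step fixation (final 0.05% Triton X-100, 1% formaldehyde, 1 ug/ml Hoechst) carried out 5 days after dosing, then counted on 4× images. The cells, lung cancer lines in 1536-well plates, had been dosed by pin tool the day after seeding with one drug alone or a fixed anchor-drug dose plus five library-drug doses (not always all listed) in √10 steps. Relative viability is the nuclei count in treated wells divided by that in vehicle wells, and each value is the median of duplicate plates.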

Compound in assay [2]: C1CC(C2=C(C1)C3=C(N2)C=CC(=C3)Cl)C(=O)N [Selisistat] + O=C(c1cc(Cc2n[nH]c(=O)c3ccccc23)ccc1F)N1CCN(C(=O)C2CC2)CC1 [Olaparib] (partner 8 µM)
The method in brief:
as §1

Compound in assay [3]: c1ccc2c(CCNc3ccc(Nc4ccncc4)cc3)c[nH]c2c1 [Serdemetan] + CC(=O)Nc1cccc(-n2c(=O)n(C3CC3)c(=O)c3c(Nc4ccc(I)cc4F)n(C)c(=O)c(C)c32)c1 [Trametinib] (partner 0.02 µM)
Summed up:
as §1

Compound in assay [4]: c1ccc2c(CCNc3ccc(Nc4ccncc4)cc3)c[nH]c2c1 [Serdemetan] + N=C(N)NC(=N)NCCc1ccccc1 [Phenformin] (partner 250 µM)
The method in brief:
as §1

Consider UMC-11, for which the relative viability in assay [1] (first compound 0.4 µM) stood at 0.962; in assay [1] (first compound 1.265 µM) it was 0.935; in assay [1] (first compound 4 µM), 1.06; in assay [1] (first compound 12.65 µM) it was 0.948; in assay [1] (first compound 40 µM), 1.03; in assay [2] (first compound 0.4 µM), 0.331. Moreover, the relative viability stood at 0.356 in assay [2] (first compound 1.265 µM); 0.271 in assay [2] (first compound 4 µM); 0.334 in assay [2] (first compound 12.65 µM); 0.353 in assay [2] (first compound 40 µM); 0.703 in assay [3] (first compound 0.04 µM); 0.672 in assay [3] (first compound 0.1265 µM). Also, the relative viability was 0.619 in assay [3] (first compound 0.4 µM); 0.388 in assay [3] (first compound 1.265 µM); 0.656 in assay [3] (first compound 4 µM); 0.312 in assay [4] (first compound 0.04 µM); 0.31 in assay [4] (first compound 0.1265 µM); 0.321 in assay [4] (first compound 4 µM).
